Consider eight compounds from ChEMBL document CHEMBL1201862, “PubChem BioAssay data set” (2004).

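Briefly, cells in 96-well plates were exposed to five compound concentrations for 48 h, and endpoints were estimated by linear interpolation. GI50 = concentration required for 50% inhibition of growth.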 Active and inactive are the calls of the source. No stated cut-off is given here; in the data, active = GI50 up to about 1.1 µM and inactive = higher.

What all share (test): inhibition of tumour cell growth, NCI panel, 48 h
In assay [1] the test system is CCRF-CEM.
In assay [2] the test system is NCI/ADR-RES.
The test system of assay [3] is K562.
Assay [4] relates to SNB-19.
For assay [5], the system named is HL-60.
The subject of assay [6] is U-251.
Assay [7] concerns MCF7.
Assay [8] concerns HCT-116.
Assay [9] deals with CAKI-1.
The test system of assay [10] is SNB-75.
Assay [11] concerns HOP-62.
Assay [12] deals with SF-295.
Assay [13] relates to SK-OV-3.
Assay [14] has as its system TK-10.
The subject of assay [15] is HT-29.
Assay [16] concerns SK-MEL-2.
Assay [17] concerns SR.
Assay [18] has as its system NCI-H226.
Assay [19] concerns HOP-92.

Consider `C/C1=C\CC[C@@]2(C)O[C@@H]2C[C@@H]2[C@H](C/C(C)=C/CC1)OC(=O)C21CC1`, for which the GI50 is 20.6 µM (inactive) in [1]; > 100 µM (inactive) in assay [2]; 21 µM (inactive) in [3]; > 100 µM (inactive) in assay [4]; 24.2 µM (inactive) in assay [5]; 28.8 µM (inactive) in assay [6]. Further, the GI50 in assay [7] is 53.5 µM (inactive); in [8], 35 µM (inactive); in [9], > 100 µM (inactive); in assay [10] it was > 100 µM (inactive); in [11], > 100 µM (inactive); in assay [12], > 100 µM (inactive). Besides, the GI50 in [13] was > 100 µM (inactive); in assay [14], > 100 µM (inactive); in assay [15] it was > 100 µM (inactive); in [16], > 100 µM (inactive); in assay [17], 12.7 µM (inactive).

Consider `COc1cc(/C=C/c2nc(NC(=S)Nc3ccccc3)nnc2C)cc(OC)c1OC`, for which the GI50 was 13.5 µM (inactive) in assay [1]; 23.7 µM (inactive) in assay [18]; 28.4 µM (inactive) in [2]; 29.9 µM (inactive) in assay [3]; 32.5 µM (inactive) in assay [4]; 8.3 µM (inactive) in assay [5]. Moreover, the GI50 in assay [6] is 31 µM (inactive); in [7], 13.9 µM (inactive); in assay [8], 24.7 µM (inactive); in assay [9], 29.1 µM (inactive); in assay [11], 35.2 µM (inactive); in assay [12], 50.1 µM (inactive). For the same compound, the GI50 in [19] is 53.7 µM (inactive); in [13], 29.6 µM (inactive); in assay [14], 41.4 µM (inactive); in assay [15], 14.7 µM (inactive); in assay [16], 14.5 µM (inactive); in [17] it was 12.4 µM (inactive).

For the compound `CC(C)=CC(=O)c1[nH]c2ccccc2c1CC(=O)NCCc1cn(C(c2ccccc2)(c2ccccc2)c2ccccc2)cn1`, the GI50 in assay [1] was 2.48 µM (inactive); in assay [18] it was 2.94 µM (inactive); in [2], 3.17 µM (inactive); in [3], 2.99 µM (inactive); in assay [4], 6.05 µM (inactive); in [5], 1.26 µM (inactive). For the same compound, the GI50 is 2.82 µM (inactive) in [6]; 2.99 µM (inactive) in assay [7]; 2.77 µM (inactive) in assay [8]; 7.87 µM (inactive) in [9]; 11.9 µM (inactive) in [11]; 4.57 µM (inactive) in assay [12]. For the same compound, the GI50 in [19] was 2.49 µM (inactive); in assay [13], 13.5 µM (inactive); in [14], 6.76 µM (inactive); in assay [15] it was 3.32 µM (inactive); in [16], 1.81 µM (inactive); in assay [17], 0.979 µM (active).

Regarding `Clc1ccc(-c2ccc(-c3nnc(CCc4nnc(-c5ccc(-c6ccc(Cl)cc6)o5)o4)o3)o2)cc1`, the GI50 in assay [1] is 2.89 µM (inactive); in assay [18], > 61.7 µM (inactive); in assay [2], > 100 µM (inactive); in [3], 7.93 µM (inactive); in [4] it was > 100 µM (inactive); in [5], 4.81 µM (inactive). For the same compound, the GI50 was 17.1 µM (inactive) in [6]; > 61.4 µM (inactive) in assay [7]; > 100 µM (inactive) in [8]; > 100 µM (inactive) in assay [9]; > 50.8 µM (inactive) in [11]; 31.5 µM (inactive) in assay [12]. Besides, the GI50 was > 27.5 µM (inactive) in [19]; > 45 µM (inactive) in [13]; 40.9 µM (inactive) in assay [14]; > 100 µM (inactive) in [15]; 23.4 µM (inactive) in assay [16]; 0.276 µM (active) in assay [17].

On to `CSc1nc(C)cc(N(C)c2ccccc2)n1`, for which the GI50 in assay [1] is 38 µM (inactive); in assay [18], 34.5 µM (inactive); in assay [2], 25.2 µM (inactive); in assay [3] it was 44 µM (inactive); in assay [4], 85.5 µM (inactive); in assay [5] it was 32.8 µM (inactive). Besides, the GI50 in [6] was 31.4 µM (inactive); in assay [7], 24.9 µM (inactive); in [8], 22.9 µM (inactive); in [9], 33 µM (inactive); in [10], 27.1 µM (inactive); in assay [11] it was 45.2 µM (inactive). For the same compound, the GI50 in assay [12] was 34.7 µM (inactive); in assay [13], 37.6 µM (inactive); in assay [14], 33.5 µM (inactive); in assay [15], 15.1 µM (inactive); in assay [16], 40 µM (inactive); in [17], 10.7 µM (inactive).

Take `Cc1nnc(N/N=C2/C(=O)Nc3ccccc32)nc1O`: the GI50 in [18], in [2], in assay [3], in assay [4], in assay [5] and in [6] was > 100 µM (inactive) each time. Also, the GI50 in assay [7], in assay [8], in assay [11], in [12], in assay [19] and in assay [13] was > 100 µM (inactive) in each case. Moreover, the GI50 in [14], in assay [15], in assay [16] and in [17] was > 100 µM (inactive) each time.

Turning to `Cc1cc(=O)oc2c(C)c3oc(CBr)cc3cc12`, the GI50 is 14.4 µM (inactive) in assay [1]; 15.5 µM (inactive) in assay [18]; 19.4 µM (inactive) in [2]; 19.9 µM (inactive) in assay [3]; 29 µM (inactive) in assay [4]; 18.3 µM (inactive) in assay [5]. Further, the GI50 was 19.8 µM (inactive) in [6]; 25.2 µM (inactive) in assay [7]; 18.5 µM (inactive) in assay [8]; 17.5 µM (inactive) in assay [9]; 22.6 µM (inactive) in assay [10]; 16.2 µM (inactive) in [11]. The GI50 in [12] was 17.1 µM (inactive); in [13], 27.4 µM (inactive); in [14], 19.9 µM (inactive); in [15], 27.4 µM (inactive); in assay [16], 24.5 µM (inactive); in assay [17], 33 µM (inactive).

For the compound `CN(C)c1ccc(/C=c2/c3ccccc3n3c2cc(NC(=O)NCCC[N+](C)(C)C)[n+]3C)cc1`, the GI50 was 0.452 µM (active) in assay [1]; > 100 µM (inactive) in assay [2]; 40.6 µM (inactive) in assay [3]; 64.1 µM (inactive) in assay [4]; 42.9 µM (inactive) in assay [5]; 50 µM (inactive) in assay [6]. In addition, the GI50 in assay [7] is 46.6 µM (inactive); in assay [8], > 100 µM (inactive); in assay [9], > 100 µM (inactive); in assay [11], > 100 µM (inactive); in [12], 53.7 µM (inactive); in assay [19] it was 30.6 µM (inactive). Moreover, the GI50 is > 100 µM (inactive) in assay [13]; > 100 µM (inactive) in assay [14]; > 100 µM (inactive) in assay [15]; > 100 µM (inactive) in assay [16]; 75.9 µM (inactive) in assay [17].
